# From publication PMC6445160, “Naphthoquinone amino acid derivatives, synthesis and biological activity as proteasome inhibitors” (Journal of Enzyme Inhibition and Medicinal Chemistry, 2017)
# Tested on: T1, 20S proteasome β5 subunit, chymotrypsin-like (ChT-L) activity
# T1 construct: gene PSMB5; native 20S proteasome purified from lymphoblastoid cells
# Assay: fluorogenic AMC peptide hydrolysis
# Assay type: biochemical
# Details: Suc-LLVY-AMC, 37 °C, 30 min, enzyme pretreated with compound; read-out: IC50 (μm)^aChT-L
# Source text: fluorogenic AMC peptide hydrolysis on 20S proteasome β5 subunit, chymotrypsin-like (ChT-L) activity
row,IC50 [µM],Compound
1,> 100,"CC(C)C[C@H](NC(=O)c1ccc([N+](=O)[O-])cc1)C(=O)NCCNC1=C(Cl)C(=O)c2ccccc2C1=O [compound 2, NBz-Leu-NH-(CH2)2-NH-ClNafQ]"
2,7.99 ± 0.67,"NC(=O)C[C@H](NC(=O)c1ccccc1)C(=O)NCCNC1=C(Cl)C(=O)c2ccccc2C1=O [compound 7, Bz-Asn-NH-(CH2)2-NH-ClNafQ]"
3,76.2 ± 6.82,"NC(=O)C[C@H](NC(=O)c1cccc2ccccc12)C(=O)NCCNC1=C(Cl)C(=O)c2ccccc2C1=O [compound 8, 1-NaftCO-Asn-NH-(CH2)2-NH-ClNafQ]"
4,0.77 ± 0.06,"O=C(N[C@@H](Cc1ccccc1)C(=O)NCCNC1=C(Cl)C(=O)c2ccccc2C1=O)c1ccc([N+](=O)[O-])cc1 [compound 10, NBz-Phe-NH-(CH2)2-NH-ClNafQ]"
5,83.5 ± 8.03,"O=C(NC(CO)C(=O)NCCNC1=C(Cl)C(=O)c2ccccc2C1=O)c1ccc([N+](=O)[O-])cc1 (stereo not drawn) [compound 14, NBz-Ser-NH-(CH2)2-NH-ClNafQ]"
6,78.3 ± 6.95,"NC(=O)C[C@H](NC(=O)c1cccc2ccccc12)C(=O)NCCCCNC1=C(Cl)C(=O)c2ccccc2C1=O [compound 24, 1-NaftCO-Asn-NH-(CH2)4-NH-ClNafQ]"
7,17.5 ± 1.07,"Cc1c(O)cccc1C(=O)N[C@@H](Cc1ccccc1)C(=O)NCCCCNC1=C(Cl)C(=O)c2ccccc2C1=O [compound 25, HMB-Phe-NH-(CH2)4-NH-ClNafQ]"
8,10.1 ± 0.7,"O=C(N[C@@H](Cc1ccccc1)C(=O)NCCCCNC1=C(Cl)C(=O)c2ccccc2C1=O)c1ccccc1 [compound 27, Bz-Phe-NH-(CH2)4-NH-ClNafQ]"
9,9.3 ± 1.02,"O=C1C(Cl)=C(NCCCCNC(=O)[C@H](Cc2ccccc2)NC(=O)c2cccc3ccccc23)C(=O)c2ccccc21 [compound 28, 1-NaftCO-Phe-NH-(CH2)4-NH-ClNafQ]"
10,88.7 ± 8.03,"O=C(NC(CO)C(=O)NCCCCNC1=C(Cl)C(=O)c2ccccc2C1=O)c1ccc([N+](=O)[O-])cc1 (stereo not drawn) [compound 30, NBz-Ser-NH-(CH2)4-NH-ClNafQ]"
11,84.1 ± 6.08,"O=C(N[C@@H](CO)C(=O)NCCCCNC1=C(Cl)C(=O)c2ccccc2C1=O)c1ccccc1 [compound 31, Bz-Ser-NH-(CH2)4-NH-ClNafQ]"
12,42.1 ± 5.02,NBz-Leu-NH-cHx-NH-ClNafQ [compound 34]
13,82.1 ± 6.52,NBz-Phe-NH-cHx-NH-ClNafQ [compound 42]

# The next lines start with the compound.
row,Compound,IC50 [µM]
1,1-NaftCO-Leu-NH-cHx-NH-ClNafQ [compound 36],59.3 ± 6.42
2,"Cc1c(O)cccc1C(=O)N[C@@H](CC(C)C)C(=O)NCCNC1=C(Cl)C(=O)c2ccccc2C1=O [compound 1, HMB-Leu-NH-(CH2)2-NH-ClNafQ]",> 100
3,"CC(C)C[C@H](NC(=O)c1ccccc1)C(=O)NCCNC1=C(Cl)C(=O)c2ccccc2C1=O [compound 3, Bz-Leu-NH-(CH2)2-NH-ClNafQ]",> 100
4,"CC(C)C[C@H](NC(=O)c1cccc2ccccc12)C(=O)NCCNC1=C(Cl)C(=O)c2ccccc2C1=O [compound 4, 1-NaftCO-Leu-NH-(CH2)2-NH-ClNafQ]",0.82 ± 0.08
5,"Cc1c(O)cccc1C(=O)N[C@@H](CC(N)=O)C(=O)NCCNC1=C(Cl)C(=O)c2ccccc2C1=O [compound 5, HMB-Asn-NH-(CH2)2-NH-ClNafQ]",8.47 ± 0.75
6,"NC(=O)C[C@H](NC(=O)c1ccc([N+](=O)[O-])cc1)C(=O)NCCNC1=C(Cl)C(=O)c2ccccc2C1=O [compound 6, NBz-Asn-NH-(CH2)2-NH-ClNafQ]",0.92 ± 0.09
7,"Cc1c(O)cccc1C(=O)N[C@@H](Cc1ccccc1)C(=O)NCCNC1=C(Cl)C(=O)c2ccccc2C1=O [compound 9, HMB-Phe-NH-(CH2)2-NH-ClNafQ]",0.85 ± 0.07
8,"O=C(N[C@@H](Cc1ccccc1)C(=O)NCCNC1=C(Cl)C(=O)c2ccccc2C1=O)c1ccccc1 [compound 11, Bz-Phe-NH-(CH2)2-NH-ClNafQ]",6.22 ± 0.48
9,"O=C1C(Cl)=C(NCCNC(=O)[C@H](Cc2ccccc2)NC(=O)c2cccc3ccccc23)C(=O)c2ccccc21 [compound 12, 1-NaftCO-Phe-NH-(CH2)2-NH-ClNafQ]",9.14 ± 1.02
10,"O=C(N[C@@H](CO)C(=O)NCCNC1=C(Cl)C(=O)c2ccccc2C1=O)c1ccccc1 [compound 15, Bz-Ser-NH-(CH2)2-NH-ClNafQ]",24.1 ± 1.98
11,"Cc1c(O)cccc1C(=O)N[C@@H](CC(C)C)C(=O)NCCCCNC1=C(Cl)C(=O)c2ccccc2C1=O [compound 17, HMB-Leu-NH-(CH2)4-NH-ClNafQ]",11.5 ± 1.02
12,"CC(C)C[C@H](NC(=O)c1ccccc1)C(=O)NCCCCNC1=C(Cl)C(=O)c2ccccc2C1=O [compound 19, Bz-Leu-NH-(CH2)4-NH-ClNafQ]",10.1 ± 0.7
13,"CC(C)C[C@H](NC(=O)c1cccc2ccccc12)C(=O)NCCCCNC1=C(Cl)C(=O)c2ccccc2C1=O [compound 20, 1-NaftCO-Leu-NH-(CH2)4-NH-ClNafQ]",49.3 ± 5.02
14,"Cc1c(O)cccc1C(=O)N[C@@H](CC(N)=O)C(=O)NCCCCNC1=C(Cl)C(=O)c2ccccc2C1=O [compound 21, HMB-Asn-NH-(CH2)4-NH-ClNafQ]",65.4 ± 6.5
15,"NC(=O)CC(NC(=O)c1ccc([N+](=O)[O-])cc1)C(=O)NCCCCNC1=C(Cl)C(=O)c2ccccc2C1=O (stereo not drawn) [compound 22, NBz-Asn-NH-(CH2)4-NH-ClNafQ]",28.5 ± 3.05
16,"NC(=O)C[C@H](NC(=O)c1ccccc1)C(=O)NCCCCNC1=C(Cl)C(=O)c2ccccc2C1=O [compound 23, Bz-Asn-NH-(CH2)4-NH-ClNafQ]",24.2 ± 2.05
17,"O=C(NC(Cc1ccccc1)C(=O)NCCCCNC1=C(Cl)C(=O)c2ccccc2C1=O)c1ccc([N+](=O)[O-])cc1 (stereo not drawn) [compound 26, NBz-Phe-NH-(CH2)4-NH-ClNafQ]",9.1 ± 0.6
18,"Cc1c(O)cccc1C(=O)N[C@@H](CO)C(=O)NCCCCNC1=C(Cl)C(=O)c2ccccc2C1=O [compound 29, HMB-Ser-NH-(CH2)4-NH-ClNafQ]",45.7 ± 2.59
19,"O=C1C(Cl)=C(NCCCCNC(=O)[C@H](CO)NC(=O)c2cccc3ccccc23)C(=O)c2ccccc21 [compound 32, 1-NaftCO-Ser-NH-(CH2)4-NH-ClNafQ]",> 100
20,Bz-Leu-NH-cHx-NH-ClNafQ [compound 35],23.1 ± 1.7
21,Bz-Phe-NH-cHx-NH-ClNafQ [compound 43],73.3 ± 3.9
22,NBz-Leu-NH-(CH2)4-NH-ClNafQ [compound 18],8.4 ± 0.72

# Tested on: T2, 20S proteasome β2 subunit, trypsin-like (T-L) activity
# T2 construct: gene PSMB7; native 20S proteasome purified from lymphoblastoid cells
# Assay: fluorogenic AMC peptide hydrolysis
# Assay type: biochemical
# Details: Boc-LRR-AMC, 37 °C, 30 min, enzyme pretreated with compound
# Source text: fluorogenic AMC peptide hydrolysis on 20S proteasome β2 subunit, trypsin-like (T-L) activity
row,IC50 [µM],Compound
1,65.3 ± 5.91,"CC(C)C[C@H](NC(=O)c1ccc([N+](=O)[O-])cc1)C(=O)NCCNC1=C(Cl)C(=O)c2ccccc2C1=O [compound 2, NBz-Leu-NH-(CH2)2-NH-ClNafQ]"
2,49.7 ± 3.87,"NC(=O)C[C@H](NC(=O)c1ccccc1)C(=O)NCCNC1=C(Cl)C(=O)c2ccccc2C1=O [compound 7, Bz-Asn-NH-(CH2)2-NH-ClNafQ]"
3,35.2 ± 2.77,"NC(=O)C[C@H](NC(=O)c1cccc2ccccc12)C(=O)NCCNC1=C(Cl)C(=O)c2ccccc2C1=O [compound 8, 1-NaftCO-Asn-NH-(CH2)2-NH-ClNafQ]"
4,35.4 ± 2.91,"O=C(N[C@@H](Cc1ccccc1)C(=O)NCCNC1=C(Cl)C(=O)c2ccccc2C1=O)c1ccc([N+](=O)[O-])cc1 [compound 10, NBz-Phe-NH-(CH2)2-NH-ClNafQ]"
5,63.4 ± 7.01,"O=C(NC(CO)C(=O)NCCNC1=C(Cl)C(=O)c2ccccc2C1=O)c1ccc([N+](=O)[O-])cc1 (stereo not drawn) [compound 14, NBz-Ser-NH-(CH2)2-NH-ClNafQ]"
6,79.7 ± 6.97,"O=C1C(Cl)=C(NCCCCNC(=O)[C@H](Cc2ccccc2)NC(=O)c2cccc3ccccc23)C(=O)c2ccccc21 [compound 28, 1-NaftCO-Phe-NH-(CH2)4-NH-ClNafQ]"
7,83.3 ± 7.21,"O=C(NC(CO)C(=O)NCCCCNC1=C(Cl)C(=O)c2ccccc2C1=O)c1ccc([N+](=O)[O-])cc1 (stereo not drawn) [compound 30, NBz-Ser-NH-(CH2)4-NH-ClNafQ]"

# Continued, compound first:
row,Compound,IC50 [µM]
1,"Cc1c(O)cccc1C(=O)N[C@@H](CC(C)C)C(=O)NCCNC1=C(Cl)C(=O)c2ccccc2C1=O [compound 1, HMB-Leu-NH-(CH2)2-NH-ClNafQ]",77.4 ± 6.51
2,"CC(C)C[C@H](NC(=O)c1ccccc1)C(=O)NCCNC1=C(Cl)C(=O)c2ccccc2C1=O [compound 3, Bz-Leu-NH-(CH2)2-NH-ClNafQ]",58.4 ± 5.13
3,"CC(C)C[C@H](NC(=O)c1cccc2ccccc12)C(=O)NCCNC1=C(Cl)C(=O)c2ccccc2C1=O [compound 4, 1-NaftCO-Leu-NH-(CH2)2-NH-ClNafQ]",21.1 ± 1.85
4,"Cc1c(O)cccc1C(=O)N[C@@H](CC(N)=O)C(=O)NCCNC1=C(Cl)C(=O)c2ccccc2C1=O [compound 5, HMB-Asn-NH-(CH2)2-NH-ClNafQ]",68.4 ± 5.14
5,"NC(=O)C[C@H](NC(=O)c1ccc([N+](=O)[O-])cc1)C(=O)NCCNC1=C(Cl)C(=O)c2ccccc2C1=O [compound 6, NBz-Asn-NH-(CH2)2-NH-ClNafQ]",17.2 ± 1.09
6,"Cc1c(O)cccc1C(=O)N[C@@H](Cc1ccccc1)C(=O)NCCNC1=C(Cl)C(=O)c2ccccc2C1=O [compound 9, HMB-Phe-NH-(CH2)2-NH-ClNafQ]",> 100
7,"O=C(N[C@@H](Cc1ccccc1)C(=O)NCCNC1=C(Cl)C(=O)c2ccccc2C1=O)c1ccccc1 [compound 11, Bz-Phe-NH-(CH2)2-NH-ClNafQ]",53.2 ± 6.7
8,"O=C1C(Cl)=C(NCCNC(=O)[C@H](Cc2ccccc2)NC(=O)c2cccc3ccccc23)C(=O)c2ccccc21 [compound 12, 1-NaftCO-Phe-NH-(CH2)2-NH-ClNafQ]",49.8 ± 3.97
9,"Cc1c(O)cccc1C(=O)N[C@@H](CO)C(=O)NCCNC1=C(Cl)C(=O)c2ccccc2C1=O [compound 13, HMB-Ser-NH-(CH2)2-NH-ClNafQ]",> 100
10,"O=C(N[C@@H](CO)C(=O)NCCNC1=C(Cl)C(=O)c2ccccc2C1=O)c1ccccc1 [compound 15, Bz-Ser-NH-(CH2)2-NH-ClNafQ]",53.8 ± 4.88
11,"O=C1C(Cl)=C(NCCNC(=O)[C@H](CO)NC(=O)c2cccc3ccccc23)C(=O)c2ccccc21 [compound 16, 1-NaftCO-Ser-NH-(CH2)2-NH-ClNafQ]",> 100
12,"Cc1c(O)cccc1C(=O)N[C@@H](CC(C)C)C(=O)NCCCCNC1=C(Cl)C(=O)c2ccccc2C1=O [compound 17, HMB-Leu-NH-(CH2)4-NH-ClNafQ]",> 100
13,"Cc1c(O)cccc1C(=O)N[C@@H](CO)C(=O)NCCCCNC1=C(Cl)C(=O)c2ccccc2C1=O [compound 29, HMB-Ser-NH-(CH2)4-NH-ClNafQ]",80.2 ± 6.91
14,"O=C1C(Cl)=C(NCCCCNC(=O)[C@H](CO)NC(=O)c2cccc3ccccc23)C(=O)c2ccccc21 [compound 32, 1-NaftCO-Ser-NH-(CH2)4-NH-ClNafQ]",60.8 ± 4.88

# Tested on: T1, 20S proteasome β5 subunit, chymotrypsin-like (ChT-L) activity
# Assay: fluorogenic AMC peptide hydrolysis
# Assay type: biochemical
# Details: Suc-LLVY-AMC, 37 °C, 30 min, enzyme pretreated with compound
row,IC50 [µM],Compound
1,> 100,1-NaftCO-Phe-NH-cHx-NH-ClNafQ [compound 44]
2,> 100,Bz-Ser-NH-cHx-NH-ClNafQ [compound 47]
3,> 100,HMB-Asn-NH-cHx-NH-ClNafQ [compound 37]
4,> 100,HMB-Leu-NH-cHx-NH-ClNafQ [compound 33]
5,> 100,HMB-Ser-NH-cHx-NH-ClNafQ [compound 45]
6,> 100,NBz-Asn-NH-cHx-NH-ClNafQ [compound 38]
7,> 100,NBz-Ser-NH-cHx-NH-ClNafQ [compound 46]

# The next lines start with the compound.
row,Compound,IC50 [µM]
1,1-NaftCO-Asn-NH-cHx-NH-ClNafQ [compound 40],> 100
2,1-NaftCO-Ser-NH-cHx-NH-ClNafQ [compound 48],> 100
3,"Cc1c(O)cccc1C(=O)N[C@@H](CO)C(=O)NCCNC1=C(Cl)C(=O)c2ccccc2C1=O [compound 13, HMB-Ser-NH-(CH2)2-NH-ClNafQ]",> 100
4,"O=C1C(Cl)=C(NCCNC(=O)[C@H](CO)NC(=O)c2cccc3ccccc23)C(=O)c2ccccc21 [compound 16, 1-NaftCO-Ser-NH-(CH2)2-NH-ClNafQ]",> 100
5,Bz-Asn-NH-cHx-NH-ClNafQ [compound 39],> 100
6,HMB-Phe-NH-cHx-NH-ClNafQ [compound 41],> 100
